Here are results for 3 compounds from patent US8541394B2, “Aminoglycoside antibiotics” (Meiji Seika Pharma Co., Ltd., priority 2006, dated 2013).

The subject of one series is kidney of normal mice. The settings on record: mouse, in vivo; for Amount of NAG in urine: ip, 120 mg/kg/day. Here is the method: An evaluation system of influence on the kidney was constructed based on renal disease model preparation method using gentamicin (KIDNEY AND DIALYSIS, Vol. 31, 1991, extra edition, “Renal Disease Model”, p. 423 “Drug-induced Renal Damage and its Examination Method,” Kidney and Dialysis Editorial Committee, published by TOKYOIGAKUSYA). The influence of the compound represented by formula (I) produced in Example 1 on the kidney was evaluated using this evaluation system. A physiological saline administration group and an arbekacin administration group were set as control groups. Each group consisted of four mice (Crj: CD-1 (ICR) female mice of eight weeks old).
In the above evaluation system, the evaluation of nephrotoxicity was carried out using NAG as an index. NAG exists in lysosome in each tissue of humans and animals, is an enzyme, which converts a mucopolysaccharide to a glycoprotein, for example, converts β-N-acetyl-D-glucosaminide to β-N-acetyl-D-glucosamine, and is plentifully present in proximal uriniferous tubule epithelial cells of the kidney in which aminoglycoside antibiotics are particularly accumulated. When the kidney, especially its proximal uriniferous tubule is damaged, NAG is released into urine to increase the amount of NAG in the urine. Accordingly, the increase in the amount of NAG in urine is considered to reflect proximal uriniferous tubule damage and is adopted as one of biochemical markers for estimating the level of renal insufficiency in clinical test items. The amount of NAG is measured by an examination method, for example, an MCP-NAG method (Outline of Latest Internal Medicine, Vol. 4, Clinical Laboratory—Kensa No Susumekata To Deta No Yomikata (How To Forward Examination and How To Read Data)—<Naika Soron 4 (General Remarks Of Internal Medicine 4> p. 274, Imura et al. (ed.), published by Nakayama Syoten Co., Ltd., 1994).
A solution of physiological saline of the compound according to the present invention having a concentration of 12 mg/mL was administered to the mice in each group at a dose of 120 mg/kg/day (in two divided doses; morning and afternoon) for 4 days by repeated intraperitoneal administration. Naturally excreted urine was collected for about 24 hr from the completion of the administration in the morning on day 4, and the amount of NAG in the urine was measured by the MCP-NAG method. The same treatment was carried out for the physiological saline administration group and the arbekacin administration group.
The influence of arbekacin and an arbekacin analogue TS2037 (5,4″-diepiarbekacin) produced according to the description of WO 2005/070945 on the kidney was evaluated in the same manner as in Test Example 3. […]

In series [1] the test system is proximal uriniferous tubule epithelial cells of the kidney of pigs. The settings on record: pig kidney proximal uriniferous tubule epithelial cells; compared with arbekacin; 44th ICAAC (2004) subject No. F-716; cited from earlier work.
The subject of series [2] is clinically isolated MRSA strain (n=9), which has low sensitivity to arbekacin. The series can be described thus: Antimicrobial activity (MIC), agar plate dilution method, MRSA with low sensitivity to arbekacin. It counts as cell-based, methicillin-resistant Staphylococcus aureus (MRSA). The conditions noted are these: Staphylococcus aureus, clinically isolated MRSA strain (n=9) with low sensitivity to arbekacin, read-out: minimal inhibitory concentration (MIC). As to the method:
MIC of the compound represented by formula (I) produced in Example 1 against an MRSA strain, specifically a clinically isolated MRSA strain (n=9), which has low sensitivity to arbekacin and against which the minimal inhibitory concentration (MIC, μg/mL) is 4 to 8, was measured by an agar plate dilution method according to the standard method of Japan Society of Chemotherapy (Chemotherapy, Vol. 29, pp. 76 to 79, 1981).

The test system of series [3] is clinically isolated MRSA strain, which has high resistance to arbekacin. Put plainly: Antimicrobial activity (MIC), agar plate dilution method, MRSA with high resistance to arbekacin. It counts as cell-based, methicillin-resistant Staphylococcus aureus (MRSA). The conditions noted are these: Staphylococcus aureus, different from Test Example 1.

Values after ≈ are worked out from the molar mass of the structure shown.

Regarding `NCC[C@H](O)C(=O)NC1C[C@H](N)C(O[C@H]2OC(CN)CCC2N)C(O)[C@H]1O[C@H]1OC(CO)[C@H](O)C(N)C1O` (some centres unmarked) [TS2037, 5,4″-diepiarbekacin], in the series on kidney of normal mice, the “amount of NAG in the urine” value came out at 358.8 mIU. Also, in series [1], the “nephrotoxicity using NAG as an index” value was “higher than that of arbekacin”.

As for `NCC[C@H](O)C(=O)NC1C(O)[C@H](N)C(O[C@H]2OC(CN)CCC2N)C(O)[C@H]1O[C@H]1OC(CO)[C@@H](O)C(N)C1O` (stereo in doubt) [Compound represented by formula (I), 2-Hydroxyarbekacin], the MIC in series [2] lay in the range of 0.5 to 2 mg/L. The “Amount of NAG in urine” value in the series on kidney of normal mice stood at 74.7 mIU.

For `NCC[C@H](O)C(=O)N[C@@H]1C[C@H](N)[C@@H](O[C@H]2O[C@H](CN)CC[C@H]2N)[C@H](O)[C@H]1O[C@H]1O[C@H](CO)[C@@H](O)[C@H](N)[C@H]1O` [Arbekacin, (S)-1-N-(4-amino-2-hydroxybutyryl)dibekacin], the MIC in series [2] was in the range of 4 to 8 mg/L (≈ 7.24 to 14.5 µM). Also, the MIC in series [3] is 128 mg/L (≈ 232 µM). In the series with kidney of normal mice, the “amount of NAG in the urine” value amounted to 168.5 mIU and the “Amount of NAG in urine” value came to 135.0 mIU.
